The nature of test [1]: cell viability loss, WST reduction – absorbance, cytotoxicity control for NOD2-RIPK2 interaction inhibitor project, late-stage follow-up (AID 652167). The conditions noted are these: WST cytotoxicity, absorbance 620 nm; WST absorbance; at 10 µM; stronger effect = lower value.
Test [2] deals with WST cytotoxicity, absorbance 620 nm. Described as above.

The source made the active and inactive calls. The rule behind the calls is not given here.

As usually defined, the IC50 is the concentration needed to halve the response being measured. In test [1], `Cc1ccc(C(C[N+](=O)[O-])n2nc(C)cc2C)cc1` (configuration not stated) showed an absorbance of 0.968. Also, the IC50 in test [2] was > 10 µM (inactive).

For `Cc1ccc(S(=O)(=O)N2CCCCCC2)cc1[N+](=O)[O-]`, the absorbance in test [1] amounted to 0.99. Also, the IC50 in test [2] is > 10 µM (inactive).

In test [1], `Cc1cc(S(=O)(=O)N2CCCCCC2)ccc1F` registered an absorbance of 1. The IC50 in test [2] is > 10 µM (inactive).

As to `Cc1ncc([N+](=O)[O-])n1Cc1ccc(Cl)c(Cl)c1`, the absorbance in test [1] was 1.01. Further, the IC50 in test [2] is > 10 µM (inactive).

Take `Cc1nc([N+](=O)[O-])c(Br)n1Cc1ccccc1`: the absorbance in test [1] was determined as 0.991. For the same molecule, in test [2], the IC50 was > 10 µM (inactive).

On to `COc1ccc(C(C[N+](=O)[O-])n2nc(C)cc2C)cc1` (configuration not stated), for which the absorbance in test [1] was determined as 0.973. The IC50 in test [2] was > 10 µM (inactive).

For the molecule `Cc1nc([N+](=O)[O-])c(Br)n1Cc1ccc(Cl)c(Cl)c1`, the absorbance in test [1] is 0.974. In test [2], the IC50 was > 10 µM (inactive).

In test [1], `O=S(=O)(c1ccccc1)N1CCCCCC1` registered an absorbance of 0.969. In test [2], the IC50 is > 10 µM (inactive).

Take `O=[N+]([O-])c1cc(S(=O)(=O)N2CCCCCC2)ccc1F`: the absorbance in test [1] was 0.991. In test [2], the IC50 was > 10 µM (inactive).

Molecule `O=S(=O)(c1ccc(F)cc1)N1CCCCCC1` registered an absorbance in test [1] of 1. In addition, the IC50 in test [2] is > 10 µM (inactive).

For `O=[N+]([O-])c1cccc(S(=O)(=O)N2CCCCCC2)c1`, the absorbance in test [1] was determined as 0.999. In addition, the IC50 in test [2] was > 10 µM (inactive).

The values are drawn from PubChem BioAssay AID652167 (The Scripps Research Institute Molecular Screening Center, 2013).
